Data from patent publication US20120289884A1, “Fused Ring Diarylamino Photosensitizers for Phototherapy” (Mallinckrodt LLC, priority 2011, published 2012).
Read-outs that look alike come from different tables or passages of the source.

Test system: U937 leukemia cancer cell line
Test: Cell viability (phototoxicity) WST-1 assay with and without UV light;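 further: WST-1 absorbance at 480 and 600 nm after 2 h compound preincubation, 20 min UV irradiation (peak 365 nm) or none, then 24 h recovery at 37 °C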
Settings: for IC50: Homo sapiens, U-937, 20 min; for cell viability with increasing concentration of compound, light exposure: 20 minutes light exposure; for activity under the photolytic conditions (in words): UV-A/UV-B light
[1] = read-out: VC50/20, U937 cells, 20 minutes UV light exposure

Procedure: The compounds were dissolved in DMSO (8 mM) and diluted with the cell culture media such that the amount of the DMSO exposed to the cells remained below 0.5% (64 mM). After light exposure, cell viability is assessed using a WST-1 (4-[3-(4-Iodophenyl)-2-(4-nitrophenyI)-2H-5-tetrazolio]-1, 3-benzene disulfonate) cell proliferation assay (Roche Diagnostics, NJ, USA). At the end of 22 hours, WST-1 is added to each well of plate. After 2 hours of incubation, the metabolic activity is quantified by absorbance measurements at 480nm and 600nm using a Synergy 4 plate reader (BioTEK Instruments, VT, USA). The number of viable cells is determined and percent viability is determined:
Viability measurements are analyzed to provide VC50/20 values which is defined as the concentration at which 50% decrease in cell viability is observed when the cells are exposed to light and the photosensitizes for 20 minutes.
Photoxicity of diarylamines were tested for their photo-toxicity in U937 cells (ATCC,VA) a monocytic leukemia cell line. Cells were cultured, harvested and counted with trypan blue exclusion method to ensure 95% viability. The cells were then plated at a density of 20,000 cells/well in flat bottom 96 well plates and incubated overnight. On the following day, dilutions of the compounds to be screened were prepared in complete RPMI media and added to cells followed by a 2-hour incubation. After the preincubation time, the cells were irradiated for 20 minutes with 100 W UV lamp (Model B-100A, UVP, Upland, Calif.) with peak output at 365 nm and a bandwidth of about 50 nm. The light source was not optimized for each compound with respect to power and wavelength. The total power near the surface of the microtiter plate is about 8 mW. The temperature at the surface of the microtiter plates were kept below 37° C. with external air cooling. After light exposure, cells were allowed to recover at 37° C. in a CO2 incubator for 24 h, and thereafter the viability was assessed using a WST-1 (4-[3-(4-Iodophenyl)-2-(4-nitrophenyl)-2H-5-tetrazolio]-1,3-benzene disulfonate) cell proliferation assay (Roche Diagnostics, NJ, USA). At the end of 22 hours, WST-1 was added to each well of plate. After 2 hours of incubation, the metabolic activity was quantified by absorbance measurements at 480 nm and 600 nm using a Synergy 4 plate reader (BioTEK Instruments, VT, USA). The percent viability was calculated as [OD value of treated cells/mean OD value of control cells]×100%). The percent cell viability assay values were then plotted in Graph Pad Prism (Graph Pad Software Inc, La Jolla, Calif.) and VC50/20 values for each compound was obtained using nonlinear regression analysis of the log inhibitor versus response in a 4 parameter curve fit. Each compound was tested for minimum of n=3. The corresponding control conditions for the cell viability assays were: (a) DMSO only (no photosensitizer), no light; (b) DMSO only (no photosensitizer) light; and (c) photosensitizer, no light (dark toxicity).
A general procedure is carried out for measuring cell viability upon exposure of U937 leukemia cells to a number of diarylamino photosensitizers of the invention and light. U937 cells are harvested and counted with trypan blue exclusion method to ensure viability. The cells are then plated at a density of 20,000 cells/well in flat bottom 96 well plates and incubated overnight. On the following day, dilutions of the compounds to be screened are prepared in complete RPMI media and added to cells followed by a 2 hour incubation. After the preincubation time, cells are exposed to UV light for various times and then allowed to recover at 37° C. in a CO2 incubator for 24 h.
The cell viability analysis is carried out using a human myeloid leukemia U937 cell line by the standard WST-1 assay.

Row | SMILES | IC50 (read-out: VC50/20) | IC50 [1] | cell viability with increasing concentration of compound, light exposure (U937 cells) | activity under the photolytic conditions (in words) (U937 cells) | cell viability with increasing concentration of compound, no light exposure (dark toxicity) (U937 cells, no light exposure)
1 | c1ccc2c(c1)Nc1ccccc1S2 [(FX10), phenothiazine] | 1390 ± 110 nM | ~1390 nM | substantial decrease in cell viability | highly active | –
2 | c1ccc2c(c1)Cc1ccccc1N2 [(FX9), acridan] | 680 ± 110 nM | 680 nM | substantial decrease in cell viability | very potent | no substantial decrease in cell viability
3 | c1ccc2c(c1)[nH]c1ccccc12 [(FX3), carbazole] | 5560 ± 1150 nM | ~5000 nM | substantial decrease in cell viability | moderately active | –
4 | c1ccc(Nc2ccccc2)cc1 [(FX20), Diphenylamine] | – | – | – | inactive | –
5 | c1ccc(C2c3ccccc3Nc3ccccc32)cc1 [(FX17), 9-phenylacridan] | 170 ± 10 nM | 170 nM | substantial decrease in cell viability | most potent | –
6 | c1ccc2c(c1)Nc1ccccc1O2 [(FX11), Phenoxazine] | 14500 ± 1540 nM | – | substantial decrease in cell viability | weakly active | –
7 | C1=Cc2ccccc2Nc2ccccc21 [(FX8), 5H-Dibenz[b,f]azepine] | 2580 ± 1140 nM | ~2580 nM | substantial decrease in cell viability | very active | –
8 | c1ccc(C2c3ccccc3Nc3ccccc32)cc1 [(FX7)] | – | – | – | less active | –
9 | CN1c2ccccc2Cc2ccccc21 [(FX19), N-methylacridan] | – | – | – | decreased the activity | –
